In US20210231678A1, “ALLERGY ANTIGEN AND EPITOPE THEREOF” (FUJITA ACADEMY, priority 2020, published 2021):

System: IgE antibody present in the serum of a patient (latex-allergic)
Assay: Latex epitope mapping (2) overlapping 10-residue peptides and (3) alanine/glycine scanning on peptide arrays
Format: binding, human
Conditions: for confirmed as epitope binding to IgE antibodies: short partial sequences of the 15-residue epitopes
Procedure: On the basis of the sequences (SEQ ID NOs: 5, 25, 35, 68 and 83) of the peptides bound to an IgE antibody in serum in a patient-specific manner as described above in (A), a library of overlapping peptide fragments (length: 10 amino acids) was prepared using the sequences of the peptides and sequences in which sequences were added so as to flank each peptide in the amino acid sequences of allergy components comprising the sequences of the peptide. Epitope mapping was carried out using the library.
The peptides to be synthesized were shifted by one amino acid.
The library was prepared by the same procedure as described above in (A), and the presence or absence of binding of an IgE antibody present in the serum of a patient to each peptide fragment was measured by the same technique as described above. Numeric values determined from images obtained as a result of carrying out only the procedures (1) and (4) to (6) described above in the subsection titled (3) Spotting of cellulose-bound peptide solution were used as control values. The control value of each peptide was subtracted from numeric values determined from images obtained from results about the serum of patients, and the obtained value of the difference was compared with values of the peptides serving as the basis of overlapping.
Chemiluminescence intensity in images obtained by measurement was converted into a numeric value in the same manner as in (A). Numeric values determined from images obtained as a result of carrying out only the procedures (1) and (4) to (6) described above in the subsection titled (3) Spotting of cellulose-bound peptide solution (secondary antibody measurement values) were used as control values. The control value of each peptide was subtracted from numeric values determined from images obtained from results about the serum of patients. When values obtained using the sequences (SEQ ID NOs: 5, 25, 35, 68 and 83) serving as the basis of overlapping were defined as 100%, it was determined that: a peptide having a value of the difference that was less than 30% had no binding activity against IgE antibodies; a peptide having a value of the difference that was 30% or more and less than 50% had binding activity, albeit poor, against IgE antibodies; a peptide having a value of the difference that was 50% or more and less than 70% had binding activity, albeit somewhat poor, against IgE antibodies; and a peptide having a value of the difference that was 70% or more had equivalent or good binding activity against IgE antibodies and was thus a peptide had remaining binding activity against IgE antibodies.
From the amino acid sequences identified above in (A), a library of peptide fragments in which amino-terminal amino acids were substituted one by one by alanine (or glycine when the original amino acid was alanine) according to a technique called alanine/glycine scanning (Non Patent Literature 5) was prepared by the same technique as described above. The presence or absence of binding of an IgE antibody present in the serum of a patient to each peptide fragment was measured by the same technique as described above.
Chemiluminescence intensity in images obtained by measurement was converted into a numeric value in the same manner as in (A). Numeric values determined from images obtained from secondary antibody measurement values were used as control values. The control value of each peptide was subtracted from numeric values determined from images obtained from results about the serum of 17 patients (patient Nos. P1-P17). […]

[1] = serum of latex-allergic patient P8
[2] = serum of latex-allergic patient P6
[3] = serum of latex-allergic patient P7
[4] = serum of latex-allergic patient P5
[5] = serum of latex-allergic patient P15
[6] = serum of latex-allergic patient P12
[7] = serum of latex-allergic patient P3
[8] = serum of latex-allergic patient P4
[9] = serum of latex-allergic patient P17
[10] = serum of latex-allergic patient P1
[11] = serum of latex-allergic patient P9

47 (LKSYKSNSV; epitope) [compound 47]
epitope sequence grade for binding to IgE antibody [1]: Key

10 (QKPYDK; epitope) [compound 10]
epitope sequence grade for binding to IgE antibody [2]: Preferably

KPLN (epitope) [SEQ ID NO: 30]
confirmed as epitope binding to IgE antibodies: confirmed as epitopes binding to IgE antibodies

78 (KVGK; epitope) [compound 78]
epitope sequence grade for binding to IgE antibody [3]: Key

14 (QKPYDK; epitope) [compound 14]
epitope sequence grade for binding to IgE antibody [1]: Preferably

71 (VNVIHKVGKG; epitope) [compound 71]
epitope sequence grade for binding to IgE antibody [4]: More preferably

31 (DKPLND; epitope) [compound 31]
epitope sequence grade for binding to IgE antibody [5]: Preferably

17 (EDNFVIQKPY; epitope) [compound 17]
epitope sequence grade for binding to IgE antibody [6]: More preferably

46 (LKSYKSNSVA; epitope) [compound 46]
epitope sequence grade for binding to IgE antibody [1]: Preferably

32 (KPLN; epitope) [compound 32]
epitope sequence grade for binding to IgE antibody [5]: Key

37 (SYKSNSVATD; epitope) [compound 37]
epitope sequence grade for binding to IgE antibody [7]: Further preferably

105 (SKFYDDK; epitope) [compound 105]
epitope sequence grade for binding to IgE antibody [4]: Preferably

QKPY (epitope) [SEQ ID NO: 6]
confirmed as epitope binding to IgE antibodies: confirmed as epitopes binding to IgE antibodies

59 (SYKSNSVA; epitope) [compound 59]
epitope sequence grade for binding to IgE antibody [6]: Further preferably

100 (KFYDDK; epitope) [compound 100]
epitope sequence grade for binding to IgE antibody [8]: Key

23 (QKPYD; epitope) [compound 23]
epitope sequence grade for binding to IgE antibody [9]: Preferably

85 (SKFYDDKN; epitope) [compound 85]
epitope sequence grade for binding to IgE antibody [10]: Preferably

16 (QKPYDK; epitope) [compound 16]
epitope sequence grade for binding to IgE antibody [11]: Key

22 (QKPYDKPLN; epitope) [compound 22]
epitope sequence grade for binding to IgE antibody [9]: More preferably

67 (KSNSV; epitope) [compound 67]
epitope sequence grade for binding to IgE antibody [9]: Key

41 (SYKSNSV; epitope) [compound 41]
epitope sequence grade for binding to IgE antibody [8]: More preferably

28 (KPLNDRYS; epitope) [compound 28]
epitope sequence grade for binding to IgE antibody [2]: Key

79 (KVGK; epitope) [compound 79]
epitope sequence grade for binding to IgE antibody [11]: Key

113 (WSKFYDDKN; epitope) [compound 113]
epitope sequence grade for binding to IgE antibody [6]: Preferably

13 (QKPY; epitope) [compound 13]
epitope sequence grade for binding to IgE antibody [3]: Key

74 (VIHKVGKGEI; epitope) [compound 74]
epitope sequence grade for binding to IgE antibody [4]: Further preferably

101 (DKNGYSSS; epitope) [compound 101]
epitope sequence grade for binding to IgE antibody [8]: More preferably

20 (QKPYDK; epitope) [compound 20]
epitope sequence grade for binding to IgE antibody (serum of latex-allergic patient P13): Key

104 (WSKFYDDK; epitope) [compound 104]
epitope sequence grade for binding to IgE antibody [4]: More preferably

36 (LKSYKSNSVA; epitope) [compound 36]
epitope sequence grade for binding to IgE antibody [7]: Most preferably

49 (KSNSVATD; epitope) [compound 49]
epitope sequence grade for binding to IgE antibody [1]: More preferably

70 (HKVGKG; epitope) [compound 70]
epitope sequence grade for binding to IgE antibody [10]: Key

34 (DKPLNDRYS; epitope) [compound 34]
epitope sequence grade for binding to IgE antibody [9]: Key

24 (QKPY; epitope) [compound 24]
epitope sequence grade for binding to IgE antibody [9]: Key

109 (WSKFYDDK; epitope) [compound 109]
epitope sequence grade for binding to IgE antibody [3]: Key

11 (QKPY; epitope) [compound 11]
epitope sequence grade for binding to IgE antibody [2]: Key

119 (DKNGYSSS; epitope) [compound 119]
epitope sequence grade for binding to IgE antibody [9]: Key

63 (VATDIY; epitope) [compound 63]
epitope sequence grade for binding to IgE antibody [6]: More preferably
